Experiment [1] is described as follows: Inhibition of Porphyromonas gingivalis recombinant CA by CO2 hydration assay.
For another experiment, the target named is T1, Carbonic anhydrase (Methanosarcina thermophila, UniProt P40881).
T1 sequence (P40881 whole entry): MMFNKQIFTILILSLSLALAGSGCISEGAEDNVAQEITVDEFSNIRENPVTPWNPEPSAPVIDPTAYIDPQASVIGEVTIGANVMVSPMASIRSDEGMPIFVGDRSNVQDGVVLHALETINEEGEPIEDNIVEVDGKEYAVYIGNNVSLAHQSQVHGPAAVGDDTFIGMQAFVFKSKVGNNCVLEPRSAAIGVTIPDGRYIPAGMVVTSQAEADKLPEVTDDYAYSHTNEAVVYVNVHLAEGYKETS
The experiment in a line: Inhibition of Methanosarcina thermophila recombinant gamma-CA by CO2 hydration assay.

`CCN(CC)C(=S)S` [DITIOCARB SODIUM]: in experiment [1], the Ki (in general, the dissociation constant of the complex between target and ligand, obtained from inhibition or displacement) stood at 0.004 mM.
The same measure, in the same setting: the same measure for `O=[As](O)(O)c1ccccc1` [PHENYLARSONIC ACID]: 0.09 mM.
As to `OB(O)c1ccccc1` [PHENYLBORONIC ACID], in experiment [1], the Ki turned out to be 0.0098 mM.
On the same count and under the same terms, with `[N-]=[N+]=[N-]` [SODIUM AZIDE] the figure was 0.073 mM.
On to `O=C([O-])O.[Na+]` [SODIUM BICARBONATE], for which the Ki in experiment [1] came out at 0.96 mM; at Carbonic anhydrase it was 42 mM.
The corresponding values for `O=S([O-])O.[Na+]` [SODIUM BISULFITE] are 9.3 mM and 11.7 mM.
The corresponding values for `[Br-].[Na+]` [SODIUM BROMIDE] are 0.92 mM and 60 mM.
The corresponding values for `O=C([O-])[O-].[Na+].[Na+]` [SODIUM CARBONATE] are 0.89 mM and 6.7 mM.
As to `S=C(S)S` [SODIUM CARBONOTRITHIOATE], the Ki in experiment [1] was 0.097 mM.
For `[Cl-].[Na+]` [SODIUM CHLORIDE], the Ki was 0.94 mM in experiment [1] and > 200 mM at Carbonic anhydrase.
In the case of `[F-].[Na+]` [SODIUM FLUORIDE], the Ki in experiment [1] was 0.95 mM.
On to `S` [SODIUM HYDROSULFIDE], for which, in experiment [1], the Ki was found to be 0.092 mM.
Regarding `O=S(=O)(O)ONOS(=O)(=O)O` [SODIUM IMINODISULFATE], the Ki in experiment [1] worked out at 7.7 mM.
As to `[I-].[Na+]` [SODIUM IODIDE], the Ki came to 8.7 mM in experiment [1] and 160 mM on Carbonic anhydrase.
Turning to `N=C=[Se]` [SODIUM ISOSELENOCYANATE], in experiment [1], the Ki is 0.91 mM.
Turning to `N=C=S` [SODIUM ISOTHIOCYANATE], the Ki in experiment [1] is 0.093 mM; at Carbonic anhydrase it was 7 mM.
The corresponding values for `O=[N+]([O-])[O-].[Na+]` [SODIUM NITRATE] are 8.5 mM and 36.5 mM.
For `O=NO` [SODIUM NITRITE], the Ki in experiment [1] came out at 3.1 mM.
Turning to `[O-][Cl+3]([O-])([O-])O` [SODIUM PERCHLORATE], the Ki in experiment [1] was > 200 mM.
Take `O=S(=O)(O)OOS(=O)(=O)O` [SODIUM PERSULFATE]: the Ki in experiment [1] was found to be 8.7 mM.
Still for that read-out and setting: the same measure for `O=[Se](=O)(O)O` [SODIUM SELENATE]: 85.5 mM.
On to `O=S(=O)([O-])[O-].[Na+].[Na+]` [SODIUM SULFATE ANHYDROUS], for which the Ki was 8.7 mM in experiment [1] and > 200 mM on Carbonic anhydrase.
For the compound `O=[Te](=O)(O)O` [SODIUM TELLURATE], the Ki in experiment [1] is 16.7 mM.
Still for that read-out and setting: with `O=BOB(O)OB(O)OB=O` [SODIUM TETRABORATE] the figure was 71.6 mM; with `F[B-](F)(F)F.[Na+]` [SODIUM TETRAFLUOROBORATE], > 200 mM.
On to `NS(=O)(=O)O` [SULFAMATE], for which the Ki in experiment [1] was 0.093 mM.
Still for that read-out and setting: the same measure for `NS(N)(=O)=O` [SULFAMIDE]: 0.0092 mM.

The record behind these values is ChEMBL document CHEMBL2401680, “A highly catalytically active γ-carbonic anhydrase from the pathogenic anaerobe Porphyromonas gingivalis and its inhibition profile with anions and small molecules” (Bioorg Med Chem Lett, 2013).
